The results in this text go back to patent US9085520B2, “Composition for treating diabetes and metabolic diseases and a preparation method thereof” (KAOHSIUNG MEDICAL UNIVERSITY, priority 2011, dated 2015).

Structures are written as SMILES.

The first assay relates to 3T3-L1 adipocytes. Nature of the assay: glucose consumption (remaining glucose) in culture medium of 3T3-L1 adipocytes. The assay is classed as cell-based. As to conditions: 30 μg/ml; culture medium of 3T3-L1 adipocytes after 24 hours; means ± SD, N = 3; control 310 ± 4.0. The protocol:
After precursor adipocytes 3T3-L1 were induced as the matured adipocytes, culture medium with glucose (concentration of 300 mg/dl) and drugs were added, and the concentration of the remaining glucose in the culture medium were measured after 24 hours.
Adipose tissues are major sites for postprandial glucose uptake. Therefore, in vitro anti-diabetic screening model based on measuring glucose consumption after 24 hours in culture medium of 3T3-L1 adipocytes was developed. […] Accordingly, 60 chalcone derivatives with and without substitutions on A-ring were examined in our developed model. […] Structure-activity relationship (SAR) analyses data are also determined.
As to `COc1ccc(/C=C/C(=O)c2ccccc2)cc1` [Compound 7, (E)-3-(4-methoxyphenyl)-1-phenylprop-2-en-1-one], the “remaining glucose concentration in culture medium after 24 hours” value (“remaining glucose concentration” below) is 261 ± 3.2 mg/dL.

For the molecule `COc1cccc(/C=C/C(=O)c2ccccc2)c1` [Compound 8, (E)-3-(3-methoxyphenyl)-1-phenylprop-2-en-1-one], the “remaining glucose concentration” value turned out to be 261 ± 7.2 mg/dL.

`O=C(/C=C/c1cccc(OCc2ccccc2)c1)c1ccccc1O` [Compound 11, (E)-3-(3-(benzyloxy)phenyl)-1-(2-hydroxyphenyl)prop-2-en-1-one]: the “remaining glucose concentration” value was determined as 256 ± 13.1 mg/dL.

Take `COc1cccc(/C=C/C(=O)c2ccccc2Br)c1` [Compound 13, (E)-1-(2-bromophenyl)-3-(3-methoxyphenyl)prop-2-en-1-one]: the “remaining glucose concentration” value was 249 ± 5.2 mg/dL.

Consider `COc1cccc(/C=C/C(=O)c2cccc(Br)c2)c1` [Compound 14, (E)-1-(3-bromophenyl)-3-(3-methoxyphenyl)prop-2-en-1-one], for which the “remaining glucose concentration” value was 262 ± 2.2 mg/dL.

As for `COc1cccc(/C=C/C(=O)c2ccc(Cl)cc2)c1` [Compound 15, (E)-1-(4-chlorophenyl)-3-(3-methoxyphenyl)prop-2-en-1-one], the “remaining glucose concentration” value came out at 272 ± 22.4 mg/dL.

In the case of `COc1cccc(/C=C/C(=O)c2ccc(Br)cc2)c1` [Compound 16, (E)-1-(4-bromophenyl)-3-(3-methoxyphenyl)prop-2-en-1-one], the “remaining glucose concentration” value turned out to be 257 ± 10.0 mg/dL.

On to `COc1ccc(/C=C/C(=O)c2cccc(Br)c2)cc1` [Compound 17, (E)-1-(3-bromophenyl)-3-(4-methoxyphenyl)prop-2-en-1-one], for which the “remaining glucose concentration” value is 248 ± 8.0 mg/dL.

As for `COc1ccc(/C=C/C(=O)c2ccc(Br)cc2)cc1` [Compound 18, (E)-1-(4-bromophenyl)-3-(4-methoxyphenyl)prop-2-en-1-one], the “remaining glucose concentration” value was found to be 261 ± 12.7 mg/dL.

In the case of `O=C(/C=C/c1ccccc1)c1cc(Br)ccc1O` [Compound 19, (E)-1-(5-bromo-2-hydroxyphenyl)-3-phenylprop-2-en-1-one], the “remaining glucose concentration” value stood at 253 ± 7.8 mg/dL.

`COc1ccc(/C=C/C(=O)c2cc(Br)ccc2O)cc1` [Compound 20, (E)-1-(5-bromo-2-hydroxyphenyl)-3-(4-methoxyphenyl)prop-2-en-1-one]: the “remaining glucose concentration” value worked out at 254 ± 17.6 mg/dL.

Take `COc1cccc(/C=C/C(=O)c2cc(Br)ccc2O)c1` [Compound 21, (E)-1-(5-bromo-2-hydroxyphenyl)-3-(3-methoxyphenyl)prop-2-en-1-one]: the “remaining glucose concentration” value was 260 ± 3.3 mg/dL.

With `O=C(/C=C/c1cccc(OCc2ccccc2)c1)c1cc(Br)ccc1O` [Compound 22, (E)-3-(3-(benzyloxy)phenyl)-1-(5-bromo-2-hydroxyphenyl)prop-2-en-1-one], the “remaining glucose concentration” value was determined as 252 ± 0.1 mg/dL.

As for `O=C(/C=C/c1ccc(OCc2ccccc2)cc1)c1cc(Br)ccc1O` [Compound 23, (E)-3-(4-(benzyloxy)phenyl)-1-(5-bromo-2-hydroxyphenyl)prop-2-en-1-one], the “remaining glucose concentration” value worked out at 256 ± 1.3 mg/dL.

Regarding `O=C(/C=C/c1ccc(O)cc1)c1ccccc1O` [Compound 24, (2E)-1-(2-hydroxyphenyl)-3-(4-hydroxyphenyl)-2-propen-1-one], the “remaining glucose concentration” value was 267 ± 3.4 mg/dL.

On to `O=C(/C=C/c1ccc(OCc2ccccc2)cc1)c1ccccc1O` [Compound 25, (E)-3-(4-(benzyloxy)phenyl)-1-(2-hydroxyphenyl)prop-2-en-1-one], for which the “remaining glucose concentration” value was 260 ± 3.8 mg/dL.

The assay is the same for the next values; noted with them: FIG. 1; 30 μg/ml, medium glucose 300 mg/dl, remaining glucose after 24 hours.
As for `COc1cccc(/C=C/C(=O)c2ccc(Cl)cc2)c1` [Compound 15, (E)-1-(4-chlorophenyl)-3-(3-methoxyphenyl)prop-2-en-1-one], the “glucose absorption activity of adipocytes 3T3-L1 (anti-hyperglycemic ability)” value is “not significantly different”.

As to `COc1cccc(/C=C/C(=O)c2ccc(Br)cc2)c1` [Compound 16, (E)-1-(4-bromophenyl)-3-(3-methoxyphenyl)prop-2-en-1-one], the “glucose absorption activity of adipocytes 3T3-L1 (anti-hyperglycemic ability)” value was “not significantly different”.
